Assay results reported in patent US12338266B2 (GENETIC S.P.A., priority 2019, dated 2025).
Entries after “also recorded” stand apart in the source; their conditions may differ.

What was measured:
[1] = tested on: mice with OVA-induced allergic asthma; assay: Plasma IgE levels by ELISA in OVA-sensitized mice (Protocol-1); type: in vivo, Balb/c mice
Procedure: Balb/c mice (8-9 weeks old, Charles River, Calco, Italy) were housed in the animal care facility at the Department of Pharmacy of the University of Naples. Italy in a controlled environment (temperature 21±2° C. and humidity 60±10%) and provided with standard rodent chow and water. All animals were allowed to acclimate for four days prior to experiments and were subjected to 12 h light-12 h dark schedule. Each mouse was assigned an identity number and randomtzed to different groups so that all experiments were carried out in a blinded manner. The experimental procedures were approved by the Italian Ministry according to International and National law and policies (EU Directive 2010/63/EU and Italian DL 26/2014 for animal experiments, ARRIVE guidelines and the Basel declaration including the 3R concept). Animal studies are reported in compliance with the ARRIVE guidelines. Balb/c mice is the most widely mouse strain used to study asthma-like features in vivo and to investigate the undedying molecular and cellular mechanisms of allergen sensitization. Mice were treated subcutaneously (s.c.) with 0.4 mL (100 μg) of ovalbumin (OVA) complexed with alum (13 mg mL^−1) (OVA group) at day 0 and 7. Chicken egg-white ovalbumin (OVA: grade V. cat. A5503, Sigma Chemical Co., St. Louis, MO) was dissolved in sterile phosphate buffered saline (PBS) solution (250 μg/1 ml) and Al(OH)3 was added (at 13 mg/ml). This mix was used to induce the allergic sensitization of the animals by subcutaneous injection. OVA was dissolved at 3% in sterile PBS solution and this solution was nebulized (as the immunological challenges). At day 21 mice were exposed to OVA challenge for three days and then sacrificed. This experimental procedure induces in the mice an increase in plasma IgE levels and this effect is by itself sufficient to induce a significant increase in bronchial hyper-responsiveness and pulmonary inflammation, typical hallmarks of asthma. A group of animals was treated s.c. with saline (vehicle group). […] Animals were killed at selected time points by overdose of enflurane and bronchi and blood collected.
Blood was collected by intracardiac puncture using citrate as anticoagulant. Plasma was obtained by centrifugation at 800×g at 4′C for 10 minutes and immediately frozen at −80° C. Total IgE levels were measured by means of ELISA using matched antibody pairs (BD Biosciences Pharmingen San Jose, Calif.).

[2] = tested on: mice with OVA-induced allergic asthma; assay: Lung hyperreactivity / Penh by whole body plethysmography (Protocol-2); type: in vivo, Balb/c mice
Procedure: Male Balb/c SPF mice (26*2 g, 6 week-old) were purchased from the animal house facilities at the Faculty of Medicine (University of Sāo Paulo, Brazil). They were group-housed in a temperature-controlled room at 22° C. with a 12/12-hour light/dark cycle and allowed free access to food and water. The study is in agreement with the Ethical Principles for Animal Research established by the Brazilian College for Animal Experimentation (COBEA). According to the internal laboratory rules, euthanasia will be performed if severe distress related to the test agents developed during the experiment. Mice were sensitized with two subcutaneous injections of 0.2 ml of OVA/Al(OH)3, with an interval of 7 days (Sham animals received the Al(OH)3 suspension in PBS with no OVA). Chicken egg-white ovalbumin (OVA; grade V, cat. A5503, Sigma Chemical Co., St. Louis, Mo.) was dissolved in sterile phosphate buffered saline (PBS) solution (50 μg/ml) and Al(OH)3 was added (at 8 mg/ml). This mix was used to induce the allergic sensitization of the animals by subcutaneous injection. OVA was dissolved at 1% in sterile PBS solution and this solution was nebulized (as the immunological challenges). Seven days after the second sensitization (i.e., 3rd week), the animals were nebulized twice a week with the 1% OVA solution (Sham and untreated OVA groups were nebulized with PBS) during 20 minutes for the next 4 weeks. Thirty minutes before the challenges (OVA nebulization) and daily during the next 4 weeks, mice were intra-nasally treated (10 μl/animal as 5 μl/nostril) with the respective compounds/vehicle. […] Animals were killed at selected time points by overdose of enflurane and BAL and blood collected.
Airway responsiveness in conscious, spontaneously breathing animals was measured at the end of the 6th week (i.e., after 4 weeks OVA challenges+treatments), 24 h after the last OVA/PBS challenge via whole body plethysmography (Buxco Europe Ltd, Winchester, UK). Experiments were carried out in a quiet room by an investigator who was unaware of the nature of treatments. Aerosolized saline (50 μl/mouse during 60 s) and then the muscarinic agonist metacholine (MCh) at increasing concentrations (3.12, 6.25, 12.5 and 25.0 mg/ml in PBS) was nebulized through an inlet of the main chamber for 3 min each to induce bronchoconstriction and readings were taken and averaged for 6 min following each nebulization. After 20 min. the baseline values usually returned at the end of this period. Enhanced pause (Penh) was measured as an indicator of bronchoconstriction and consequent increase of airway resistance as: Penh=[(expiration time/relaxation time)−1][…].

CC(C)(O)c1ccccc1CCC(SCC1(CC(=O)OCC(=O)[C@@]23O[C@H](C4CCCCC4)O[C@@H]2C[C@H]2[C@@H]4CCC5=CC(=O)C=C[C@]5(C)[C@H]4[C@@H](O)C[C@@]23C)CC1)c1cccc(/C=C/c2ccc3ccc(Cl)cc3n2)c1 (stereo partly shown) [montelukast desisobutyryl-ciclesonide ester]
allergen induced plasma IgE increase ([1]; 0.5, 1 and 2 mg/Kg i.p.): reduces allergen induced IgE increase in a dose-dependent manner
inhibition of allergen induced IgE increase, compared to ciclesonide ([1]; ester 2 mg/kg i.p. vs ciclesonide 1 mg/kg, FIG. 6C): increased inhibitory effect
respiratory function at the lowest dose tested ([2]; 10 nmol/animal/day, comparable with ciclesonide alone at 100 nmol/animal/day): significant effects
airway responsiveness, Penh (basal, methacholine Emax and AUC) ([2]; 10, 30 and 100 nmol/day/animal intranasal, daily for 4 weeks, FIG. 8A-D): Significant reduction of this response; also recorded: significantly reduced
